Structures are written as SMILES.

The record followed here is patent US9889234B2, “Scaffold for hard tissue regeneration containing active ingredient for treating osteoporosis and preparing method thereof” (KOREA INSTITUTE OF MACHINERY AND MATERIALS, priority 2014, dated 2018).

The nature of series [1]: Solubility of the active ingredient. Format: physicochemical.
Series [2] has as its system RAW 264.7 cells, the multinuclear osteoclasts treated with RANKL. Put plainly: Osteoclast proliferation activity, drug in medium. In kind it is cell-based. The following applies: for inhibition of osteoclast proliferation, ranking among Quercetein, Genistein, Alendronate: same dose; for proliferation of osteoclasts: compared with the case not treated, 1 μM or 200 μM.
Another series deals with MC3T3-E1 cells. The series is described as follows: Osteoblast proliferation activity, MTS assay, drug in medium. Format: cell-based. On the procedure:
MC3T3-E1 cells (MC3T3-E1 Subclone 4, ATCC CRL-2593, obtained from ATCC) were cultured in α-MEM (α-Minimum Essential Medium, GIBCO) supplemented with FBS (Fetal Bovine Serum) and penicillin/streptomycin under the standard culture condition (37° C., 5% CO2). When the cells were grown to 70˜80% confluency, the cells were trypsinized. Then, the cells were collected by centrifugation.
The collected MC3T3-E1 cells were seeded at the density of 1.0×10^4 cells, followed by standard culture for 2 hours. The medium containing Quercetein at the concentrations of 0, 1, 10, 50, 100, and 200 μm was added thereto.
To observe the metabolic activity of the seeded MC3T3-E1 cells, colorimetric 3-(4,5-dimethylthiazole-2-yl)-5-(3-carboxymethoxyphenol)-2-(4-sulfophenyl)-2H-tetrazolium (MTS) assay (CellTiter 96® AQeous One solution Cell Proliferation Assay, Promega) was performed according to the manufacturer's instruction. The MTS tetrazolium compound is converted biologically and dissolved in the tissue culture medium by the cells into a formazan product displaying highest absorbance at 490 nm.
The following experiment was performed by the same manner as described in Experimental Example <2-1> except that Genistein was used instead of Quercetein.
(Formazan colour is commonly taken as a measure of viable cells.)

Series [3] is described as follows: Drug releasing characteristics of the active ingredient from the scaffold. In kind it is physicochemical. As for the experimental part: To evaluate the drug releasing characteristics of the active ingredient included in the scaffold, the scaffold for hard tissue regeneration (containing Quercetein by 200 μm/scaffold) prepared in Example 1 was dipped in body fluid like PBS (phosphate buffered saline) or de-ionized water in a 37° C. shaker. Sampling of the solution was performed hourly and the concentration of Quercetein released in the solution was measured. Quercetein is a hydrophobic material, so that it is very difficult to detect the concentration by dissolving. To evaluate the drug releasing activity in a solution where the active material is dissolved, the experiment was equally performed with ethanol, the dissolving solvent.
The following experiment was performed by the same manner as described in Example <1-1> except that the scaffold for hard tissue regeneration (containing Genistein by 200 μm/scaffold) prepared in Example 3 instead of the scaffold for hard tissue regeneration (containing Quercetein by 200 μm/scaffold) prepared in Example 1.

[4] abbreviates: determined from the proliferation of osteoblasts.

Turning to `O=c1c(-c2ccc(O)cc2)coc2cc(O)cc(O)c12` [Genistein], the “solubility in an aqueous solution” value in series [1] is “low”. For the same compound, the “solubility in ethanol compared with that of Quercetein” value in series [1] (ethanol, from comparison of release results) was “even higher”. The “inhibition of osteoclast proliferation, ranking among Quercetein, Genistein, Alendronate” value in series [2] (1 μM) is recorded as “most excellent in inhibiting the proliferation of osteoclasts”. Moreover, the proliferation of osteoclasts entry in series [2] is “significantly inhibited”. In addition, the proliferation of osteoblasts entry in the series with MC3T3-E1 cells (1 μM, day 3 and day 5) is “promoted the proliferation of osteoblasts”; in the series with MC3T3-E1 cells (concentration increased from 1 to 10 μM, vs non-treated group), “increased”; in the series with MC3T3-E1 cells (concentration over 10 μM), “rather inhibited”. Also, the “promoting effect on osteoblast proliferation relative to Quercetein” value with MC3T3-E1 cells (1 μM, day 3 and day 5) was “greater than that of Quercetein”. The “most preferable concentration (osteoblast proliferation)” value in the series with MC3T3-E1 cells (setting [4]) came out at 1 µM. The “preferable concentration (osteoblast proliferation)” value with MC3T3-E1 cells (setting [4]) was 1˜10 μM. Besides, the Genistein released in series [3] (from scaffold of Example 3 (200 μm/scaffold), ethanol, early 5 days) was 100%; in series [3] (from scaffold of Example 3, de-ionized water and PBS, over 55 days, without early acute release), 60%.

For `O=c1c(O)c(-c2ccc(O)c(O)c2)oc2cc(O)cc(O)c12` [Quercetein], the “solubility in an aqueous solution” value in series [1] is listed as “low”. Moreover, the “inhibition of osteoclast proliferation, ranking among Quercetein, Genistein, Alendronate” value in series [2] (200 μM) is “most excellent in inhibiting the proliferation of osteoclasts”. Also, the proliferation of osteoclasts entry in series [2] is “significantly inhibited”. Further, the proliferation of osteoblasts entry is recorded as “promoted the proliferation of osteoblasts” in the series on MC3T3-E1 cells (1 μM, day 3 and day 5); “increased Quercetein dose-dependently” with MC3T3-E1 cells (concentration increased from 1 to 200 μM, vs non-treated group, day 1, 3, 5). Moreover, the “effect on the proliferation of osteoblasts” value in the series with MC3T3-E1 cells (200 μM, day 3 and day 5, comparison with Alendronate) is “increased the proliferation significantly”. Besides, the “preferable concentration (osteoblast proliferation)” value in the series on MC3T3-E1 cells (setting [4]) is given as 1˜200 μM. For the same compound, the Quercetein released was 100% in series [3] (from scaffold of Example 1 (200 μm/scaffold), ethanol, 37° C. shaker, over 40 days, without early acute release); 10% in series [3] (from scaffold of Example 1, de-ionized water and PBS, 37° C., early 20 days); “approximately 50%” in series [3] (from scaffold of Example 1, de-ionized water and PBS, 37° C., over 68 days); 50% in series [3] (from scaffold, de-ionized water and PBS, over 60 days).
